Assay results reported in US20230390386A1, “REPLICATION-DEFECTIVE VACCINES AND USES THEREOF” (priority 2020, published 2023).

Legend:
HSV-2 GFP = HSV-2 GFP fluorescence imaging and growth curve (plaque assay) in ARPE-19 cells after CM treatment; type: cell-based, human simplex virus-2; settings: for HSV-2-GFP infection and growth: ARPE-19 cells
Procedure: Human Simplex Virus (HSV) treatment with CM: The ARPE-19 (ATCC CRL-2302) cells were grown in 12 well plate in DMEM with 10% FBS and 1% P/S. […] were treated with different concentration of centanamycin (100 μM, 10 μM, 1μM, 0.1 μM, and 0.01 μM) for two hours at room temperature. The CM treated HSV were washed 3 times with cDMEM after treatment to remove CM and added to the ARPE-19 cells in triplicate at an MOI of 0.2. The HSV viruses were collected at 6, 12, 18, 24, 30, 36, and 42 hours of post-infection. The virus titer was determined by plaque assays using ARPE-19 cells.
In this study, the HSV-2 GFP was treated with the different concentrations of CM ranging from 100 μM to 0.01 μM (10-fold serial dilution at each concentration) and determined the growth curve using plaque assay (FIG. 2B). […] A 10 μM CM treatment of HSV-2-GFP leads to the virus attenuation and the virus was not able to spread to adjacent cells (FIG. 2A). […] The virus treatment with 1 μM CM lead to viral infection in host cells and extremely slowly spread to neighbor cells (FIG. 2A).

MCMV-Luc = MCMV-Luc growth curve in NIH 3T3 cells after CM treatment; type: cell-based, mouse cytomegalovirus; settings: two hours at RT, MOI 0.1
Procedure: Previous studies in the current disclosure had been conducted in vitro. […] This study would identify a CM concentration required to attenuate the MCMV. For this assay, a luciferase-expressing version of MCMV, MCMV-Luc was used, and viral growth was measured as photon counts during intravital imaging using an in vivo imaging system (IVIS). The MCMV-Luc was treated with different concentrations of CM at RT for two hours and then added to NIH 3T3 cells established in 24 well plates in triplicate at a multiplicity of infection (MOI) of 0.1. The MCMV growth curve was determined by measuring the luciferase expression every 24 h using IVIS. […] This information was used to perform In vivo analysis of CM effect on the MCMV replication in the mice.

VZV-Luc = test: Cell-free VZV-Luc growth curve in ARPE-19 cells after CM treatment; type: cell-based, varicella zoster virus; settings: for VZV-Luc growth and spread: two hours at RT, ARPE-19 cells
Procedure: Cell-free Varicella-zoster virus (VZV) treatment with the CM: VZV is a cell-associated virus. The efficacy of CM on VZV was checked using growth curve analysis. VZV-GFP-Luc was used to check the effect of CM on the virus. The ARPE-19 cells were seeded in 6-well plate and maintained at 37° C. and 5% CO2. The cell-free virus was treated with different concentration of CM (centanamycin (100 μM, 10 μM, and 0.1 μM) for two hours at RT and washed with three times with cDMEM prior to adding to the cells. The virus load in the infected cells was determined by adding luciferin substrate and measuring relative luciferase units every 24 hours of post-infection. The control included the cells infected with the virus without CM treatment. Viability of infected cells was quantified using the Cell Counting Kit-8 (Sigma# 96992) according to the manufacturers protocol.
Subsequent studies then evaluated the effect of CM treatment on the replication and growth of human alphaherpesvirus-3, also known as varicella zoster virus (VZV), under in vitro conditions in human epithelial ARPE-19 cells. The VZV is a highly cell associated virus and it is transmitted by cell-cell spread. The cell-free, luciferase-expressing VZV-Luc was treated with different concentration of CM (100 μM, 10 μM, 1.0 μM, and 0.1 μM) for two hours at RT. After two hours, the virus was added to the ARPE-19 cells. […] As compared to the CMV which can be attenuated with 1 μM CM, VZV is attenuated with 10 μM CM and this is because VZV is a cell associated virus and CM needs to cross the cell membrane to bind the virus and completely attenuates the VZV.

HCMV gDNA = test: Analysis of CM-treated viral gDNA (agarose gel, EcoR1 digestion, 50° C. incubation); parameters: species or system human cytomegalovirus
Procedure: Analysis of CM and viral gDNA: To see any effect of CM on the HCMV gDNA, the gDNA was analyzed by agarose gel electrophoresis, restriction digestion, and thermal incubation at 50° C. The HCMV was grown in ARPE-19 cells and virus particles were purified through sucrose gradient using ultracentrifugation. HCMV gDNA was extracted and concentration was determined by OD at 260/280. Approximately, 10 μg of HCMV gDNA was incubated with 10 μM CM at RT for 1 hour and 10 μg of HCMV gDNA was treated with vehicle control without CM. The treated gDNA was analyzed by the agarose gel electrophoresis to see any effect of CM on the HCMV gDNA. In a separate experiment, the […] treated HCMV gDNA was incubated at 50° C. for 30 minutes to check the alkylation of DNA is thermolabile or not. Untreated HCMV gDNA was also treated similarly. In another, 3 μg of CM treated and untreated HCMV gDNA was digested with EcoR1 overnight at 37° C. and analyzed by 0.6% agarose gel electrophoresis.
To understand the mechanism behind CM mediated attenuation of the virus, CM-treated viral gDNA was analyzed using agarose gel electrophoresis, restriction digestion, and heat-labile fragmentation assays. The AD169 viral gDNA was treated with 1 μM CM for two hours at RT and then separated with a 0.6% agarose gel. Untreated AD169 viral gDNA was used as a control. […] To further understand the effect of CM on the viruses, viral gDNA was isolated and treated with CM for two hours at RT followed by digestion with the restriction enzymes EcoR1. […] However, the CM treated viruses were alkylated efficiently as compared to the control which was observed by the DNA fragmentation during incubation at 50° C. while control untreated viruses have intact DNA (FIG. 3C).

Question: For COc1cc2cc(C(=O)Nc3cc(N)c4ccccc4c3CCCl)[nH]c2c(OC)c1OC [CM, centanamycin], which “CM concentration needed to produce replication-defective HSV-2” value (HSV-2 GFP) is on record?
Answer: Its value is 1 µM.

Question: And the “HSV-2-GFP infection and growth” value (HSV-2 GFP; virus treated with 1.0 μM CM)?
Answer: Its value is “slower growth as compared to untreated”.

Question: What about the “HSV-2-GFP infection and growth” value (HSV-2 GFP; virus treated with 10 μM CM) of the same compound?
Answer: The value was “able to infect the cells but not replicate”.

Question: And the “HSV-2-GFP infection and growth” value (HSV-2 GFP; virus treated with 100 μM CM)?
Answer: The value was “completely inhibits the virus infection”.

Question: And the “MCMV-Luc infection and replication (luciferase expression)” value (shortened to “MCMV-Luc infection and replication”) (MCMV-Luc; virus treated with 0.01 μM CM)?
Answer: The value was “able to grow and replicate but slower than untreated”.

Question: And the “MCMV-Luc infection and replication” value (MCMV-Luc; virus treated with 1.0 μM CM)?
Answer: The value was “allowed the virus to infect host cells but not replicate”.

Question: And the “MCMV-Luc infection and replication” value (MCMV-Luc; virus treated with 10 μM CM)?
Answer: Its value is “did not allow the MCMV-Luc to infect the cells”.

Question: And the “CM concentration that attenuates VZV” value (VZV-Luc)?
Answer: The value was 10 µM.

Question: What about the “VZV-Luc growth and spread” value (VZV-Luc; cell-free virus treated with 0.1 μM CM) of the same compound?
Answer: Its value is “infect as well as spread to the adjacent cells but with reduced growth”.

Question: And the “VZV-Luc growth and spread” value (VZV-Luc; cell-free virus treated with 1.0 μM CM)?
Answer: Its value is “infect as well as spread to the adjacent cells but with reduced growth”.

Question: What about the “VZV-Luc growth and spread” value (VZV-Luc; cell-free virus treated with 10.0 μM CM) of the same compound?
Answer: The value was “allowed the virus to infect the cells but not to spread to the adjacent cells”.

Question: And the “VZV-Luc growth and spread” value (VZV-Luc; cell-free virus treated with 100 μM CM)?
Answer: Its value is “completely inhibit the growth as well as replication”.

Question: And the “Viral gDNA bands on 0.6% agarose gel, treated versus untreated” value (HCMV gDNA; AD169 viral gDNA, 1 μM CM, two hours at RT)?
Answer: Its value is “no big differences in the viral gDNA bands, mobility, and gel pattern”.

Question: What about the “EcoR1 digestion pattern of CM treated viral gDNA” value (HCMV gDNA; CM two hours at RT, then EcoR1) of the same compound?
Answer: The value was “no major missing bands”.

Question: And the “Thermolabile alkylation: state of CM treated viral DNA on incubation at 50° C.” value (HCMV gDNA; incubation at 50° C.)?
Answer: The value was “experienced fragmentation at 50 °C”.
